Measurements published in ChEMBL document CHEMBL2396519, “Structure-based design of β-site APP cleaving enzyme 1 (BACE1) inhibitors for the treatment of Alzheimer's disease” (J Med Chem, 2013).
Each block holds one compound with its values, some of them ahead of it.

Assays:
[1] = test system: Mus musculus; assay: Inhibition of BACE1 in TASTPM mouse assessed as reduced brain Abeta42 at 250 mg/kg, po bid after 5 days; type: functional; conditions: 120 h
[2] = test system: Mus musculus; assay: Inhibition of BACE1 in TASTPM mouse assessed as reduced brain Abeta40 at 250 mg/kg, po bid after 5 days; type: functional; conditions: 120 h
[3] = molecular target: Beta-secretase 1 (Homo sapiens) (UniProt P56817); assay: Inhibition of BACE1 (unknown origin) in a cell-based assay
[4] = molecular target: T1, Beta-secretase 2 (Homo sapiens) (UniProt Q9Y5Z0); assay: Inhibition of BACE2 (unknown origin)
T1 sequence (whole entry): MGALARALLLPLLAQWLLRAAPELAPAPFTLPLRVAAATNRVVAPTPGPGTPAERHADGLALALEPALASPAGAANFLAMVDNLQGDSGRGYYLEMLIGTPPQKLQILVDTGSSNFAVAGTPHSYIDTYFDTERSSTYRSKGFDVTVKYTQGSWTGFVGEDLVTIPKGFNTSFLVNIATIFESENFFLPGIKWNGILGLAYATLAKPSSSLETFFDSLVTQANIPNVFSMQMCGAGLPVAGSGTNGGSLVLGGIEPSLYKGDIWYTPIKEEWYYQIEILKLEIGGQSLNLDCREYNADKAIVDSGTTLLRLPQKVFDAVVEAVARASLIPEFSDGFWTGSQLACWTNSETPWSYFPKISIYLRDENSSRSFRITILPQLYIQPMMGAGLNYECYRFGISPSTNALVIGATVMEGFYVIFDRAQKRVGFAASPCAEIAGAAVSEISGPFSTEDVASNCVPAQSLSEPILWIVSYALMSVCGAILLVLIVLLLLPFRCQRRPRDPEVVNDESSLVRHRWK

[5] = molecular target: Beta-secretase 1 (Homo sapiens) (UniProt P56817); assay: Inhibition of human recombinant BACE1 using MBP-C12Swe as substrate by FRET assay
[6] = Half life in beagle dog at 5 mg/kg, po; type: ADME, organism-based, Canis lupus familiaris; parameters: dose 5 mg/kg, route oral; conditions: in vivo
[7] = molecular target: Cathepsin D (Homo sapiens) (UniProt P07339); assay: Inhibition of human liver Cathepsin D
[8] = Plasma concentration in beagle dog at 5 mg/kg, po after 1 hr; type: ADME, organism-based, Canis lupus familiaris; parameters: dose 5 mg/kg, route oral
[9] = test system: Canis familiaris; assay: Inhibition of BACE1 in beagle dog assessed as reduced plasma Abeta level at 5 mg/kg, po after 4 to 12 hrs; type: functional; conditions: Canis lupus familiaris
[10] = molecular target: Beta-secretase 1 (Homo sapiens) (UniProt P56817); assay: Inhibition of BACE1 in HEK293 cells; type: cell-based
[11] = test system: Brain; assay: Drug uptake in mouse brain at 10 mg/kg, po; type: ADME, organism-based; parameters: dose 10 mg/kg, route oral; conditions: in vivo
[12] = test system: Canis familiaris; assay: Inhibition of BACE1 in beagle dog assessed as reduced CSF Abeta level at 5 mg/kg, po after 9 hrs; type: functional; conditions: Canis lupus familiaris
[13] = molecular target: T2, Renin (Homo sapiens) (UniProt P00797); assay: Inhibition of recombinant renin (unknown origin)
T2 sequence (whole entry): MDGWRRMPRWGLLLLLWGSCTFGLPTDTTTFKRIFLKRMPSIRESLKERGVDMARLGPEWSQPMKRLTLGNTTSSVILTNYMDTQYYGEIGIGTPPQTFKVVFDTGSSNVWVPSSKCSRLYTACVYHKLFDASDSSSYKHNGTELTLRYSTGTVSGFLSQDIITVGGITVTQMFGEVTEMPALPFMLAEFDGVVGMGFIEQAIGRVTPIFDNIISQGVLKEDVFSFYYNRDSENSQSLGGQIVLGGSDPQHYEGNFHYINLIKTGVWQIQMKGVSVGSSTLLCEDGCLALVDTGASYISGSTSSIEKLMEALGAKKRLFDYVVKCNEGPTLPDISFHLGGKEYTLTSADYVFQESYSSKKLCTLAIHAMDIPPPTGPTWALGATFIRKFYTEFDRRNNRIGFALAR

[14] = test system: Homo sapiens; assay: Inhibition of BACE1 in alzheimer's disease patient assessed as reduction of plasma Abeta40 level at 90 mg/kg after 7 hrs; type: functional
[15] = test system: Homo sapiens; assay: Inhibition of BACE1 in alzheimer's disease patient assessed as reduction of plasma Abeta40 level at 90 mg/kg after 24 hrs; type: functional
[16] = organism: Sus scrofa; assay: Inhibition of pig gastric mucosa pepsin
[17] = test system: Brain; assay: Drug uptake in mouse brain at 100 mg/kg, po; type: ADME, organism-based; parameters: dose 100 mg/kg, route oral; conditions: in vivo
[18] = test system: Brain; assay: Drug uptake in mouse brain at 30 mg/kg, po; type: ADME, organism-based; parameters: dose 30 mg/kg, route oral; conditions: in vivo
[19] = test system: Canis familiaris; assay: Inhibition of BACE1 in beagle dog assessed as reduced CSF Abeta level at 5 mg/kg, po after 3 hrs; type: functional; conditions: Canis lupus familiaris
[20] = molecular target: T1, Beta-secretase 2 (Homo sapiens); assay: Inhibition of human BACE2 by mcaFRET assay
[21] = test system: Homo sapiens; assay: Inhibition of BACE1 in alzheimer's disease patient assessed as reduction of CSF Abeta level at 15 mg/kg; type: functional
[22] = test system: Homo sapiens; assay: Inhibition of BACE1 in alzheimer's disease patient assessed as reduction of CSF Abeta level at 35 mg/kg; type: functional

Sequence of Beta-secretase 1 (Homo sapiens) (P56817 whole entry): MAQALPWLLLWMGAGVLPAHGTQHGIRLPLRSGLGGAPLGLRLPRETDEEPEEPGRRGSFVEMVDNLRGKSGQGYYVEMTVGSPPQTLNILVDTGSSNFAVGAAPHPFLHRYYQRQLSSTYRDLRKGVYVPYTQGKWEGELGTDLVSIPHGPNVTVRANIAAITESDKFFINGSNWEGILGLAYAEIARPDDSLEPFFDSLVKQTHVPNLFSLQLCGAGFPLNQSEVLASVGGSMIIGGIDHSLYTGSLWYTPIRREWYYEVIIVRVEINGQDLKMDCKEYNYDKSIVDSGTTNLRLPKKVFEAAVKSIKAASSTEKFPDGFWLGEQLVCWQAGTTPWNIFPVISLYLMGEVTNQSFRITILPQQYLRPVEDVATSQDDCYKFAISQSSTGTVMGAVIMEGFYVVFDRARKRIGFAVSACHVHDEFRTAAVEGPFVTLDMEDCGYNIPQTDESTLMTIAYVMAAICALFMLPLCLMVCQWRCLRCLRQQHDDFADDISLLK
Sequence of Cathepsin D (Homo sapiens) (P07339 65-162 limits assumed): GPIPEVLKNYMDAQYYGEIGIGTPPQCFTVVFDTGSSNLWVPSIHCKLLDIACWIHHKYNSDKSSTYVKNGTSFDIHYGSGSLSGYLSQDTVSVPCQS
Sequence of Cathepsin D (Homo sapiens) (P07339 169-412 limits assumed): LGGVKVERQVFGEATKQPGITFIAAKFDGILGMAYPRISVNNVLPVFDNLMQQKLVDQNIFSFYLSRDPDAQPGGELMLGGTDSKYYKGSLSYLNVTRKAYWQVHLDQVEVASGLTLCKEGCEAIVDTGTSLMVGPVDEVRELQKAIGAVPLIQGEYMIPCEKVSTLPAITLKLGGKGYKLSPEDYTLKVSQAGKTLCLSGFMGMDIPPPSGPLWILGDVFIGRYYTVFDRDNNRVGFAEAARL

Compound: CCNc1cc(C(=O)N[C@@H](Cc2ccccc2)[C@H](O)CNCc2cccc(C(F)(F)F)c2)cc(N2CCCCS2(=O)=O)c1
- inhibition in vivo at 250 mg/kg [1]: 23%
- inhibition in vivo at 250 mg/kg [2]: 18%

- INH [3]: 4 µM
- INH [4]: 0.0045 µM
Compound: CC(C)C[C@H](NC(=O)[C@@H]1CC(=O)NCCCCCCOC(=O)N[C@@H](C(C)C)C(=O)N1)[C@@H](O)C[C@@H](C)C(=O)N[C@H](C(=O)NCc1ccccc1)C(C)C

- INH [3]: 18 µM
Compound: C[C@@H](NC(=O)c1cc(C(=O)N[C@@H](Cc2ccccc2)[C@H](O)[C@@H]2NC(C)(C)N(C)C2=O)cc(N(C)S(C)(=O)=O)c1)c1ccc(F)cc1

- INH [3]: 0.03 µM
Compound: C[C@@H](NC(=O)c1cc(C(=O)N[C@@H](Cc2ccccc2)[C@H](O)[C@@H]2NC(C)(C)N(Cc3ccccc3)C2=O)cc(N(C)S(C)(=O)=O)c1)c1ccc(F)cc1

- INH [3]: 0.028 µM
Compound: C[C@@H]1N[C@@H]([C@@H](O)[C@H](Cc2ccccc2)NC(=O)c2cc(C(=O)N[C@H](C)c3ccc(F)cc3)cc(N(C)S(C)(=O)=O)c2)C(=O)N1Cc1ccccc1

- INH [5]: 0.92 µM
Compound: C[C@@]1(c2cccc(-c3cncnc3)c2)CCSC(N)=N1

- INH [5]: 790 µM
Compound: Cc1ccc2c(c1)CSC(N)=N2

- half-life [6]: 6.8 h
- INH [7]: 15.7 µM
- concentration at 1 h [8]: 1920 ng/mL
- INH [10]: 0.3 µM
- Drug uptake [11]: 1.46 µg/g
- INH [5]: 0.24 µM
- INH [13]: 39 µM
- Drug uptake [17]: 12.12 µg/g
- Drug uptake [18]: 3.35 µg/g
- INH [20]: 2.8 µM
Compound: C[C@@]1(c2cc(-c3cncnc3)c(F)cc2F)CCSC(N)=N1 [LY-2811376]
- inhibition in vivo at 5 mg/kg [9]: 85%
- inhibition in vivo at 5 mg/kg [12]: 70%
- inhibition in vivo at 90 mg/kg [14]: 80%
- inhibition in vivo at 90 mg/kg [15]: 64%
- INH [16]: 32.6 µM
- inhibition in vivo at 5 mg/kg [19]: 43%

Compound: NC1=N[C@@]2(c3cc(NC(=O)c4ccc(F)cn4)ccc3F)COC[C@H]2CS1 [LY-2886721]
- inhibition in vivo at 15 mg/kg [21]: 30%
- inhibition in vivo at 35 mg/kg [22]: 60%
